According to patent US20150352108A1, “AMINO-PYRIMIDINE COMPOUNDS AS INHIBITORS OF TBK1 AND/OR IKK EPSILON” (Alzheimer's Institute of America, priority 2009, published 2015):
Where two headings read alike, the source gives them in different places.

How the values were obtained:
[1] = molecular target: T1, IKKε (Homo sapiens, UniProt Q14164); assay: In-vitro IKKε kinase assay ([γ33]ATP filter-plate); type: biochemical
T1 construct: His-tag; made in house; host or cells: Sf9 insect cells
T1 sequence (Q14164 1-716): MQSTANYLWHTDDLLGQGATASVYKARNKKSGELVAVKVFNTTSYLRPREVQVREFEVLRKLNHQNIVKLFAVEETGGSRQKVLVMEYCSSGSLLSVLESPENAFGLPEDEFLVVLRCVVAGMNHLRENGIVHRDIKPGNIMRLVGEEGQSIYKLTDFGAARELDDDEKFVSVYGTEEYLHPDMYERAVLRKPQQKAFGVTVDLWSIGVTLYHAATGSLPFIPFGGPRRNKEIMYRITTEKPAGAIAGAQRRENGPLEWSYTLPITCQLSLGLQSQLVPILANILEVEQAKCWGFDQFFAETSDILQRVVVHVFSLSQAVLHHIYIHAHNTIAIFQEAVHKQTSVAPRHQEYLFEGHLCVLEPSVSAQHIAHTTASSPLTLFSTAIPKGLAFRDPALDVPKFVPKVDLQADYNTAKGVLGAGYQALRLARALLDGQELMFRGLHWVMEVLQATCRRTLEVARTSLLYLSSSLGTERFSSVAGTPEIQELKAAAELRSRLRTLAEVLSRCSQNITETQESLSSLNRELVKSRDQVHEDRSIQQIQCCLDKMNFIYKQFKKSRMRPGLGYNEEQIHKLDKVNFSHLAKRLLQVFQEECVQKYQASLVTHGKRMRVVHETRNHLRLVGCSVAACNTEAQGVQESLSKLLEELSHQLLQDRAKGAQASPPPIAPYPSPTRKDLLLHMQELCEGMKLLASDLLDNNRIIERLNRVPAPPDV
Outline: (§1)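 His-tagged IKKε and TBK1 from Sf9 cells were assayed with myelin basic protein or casein and [γ33]ATP at 2×Km ATP (32 μM for IKKε, 60 μM for TBK1). Enzyme was 0.1 or 0.015 μg/ml for IKKε and 0.1 or 0.02 μg/ml for TBK1 (normal/sensitized). Reactions ran 30-45 min, were filter-captured, scintillation-counted, and normalized to DMSO after background subtraction.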

[2] = molecular target: T2, TBK1 (Homo sapiens, UniProt Q9UHD2); assay: In-vitro TBK1 kinase assay ([γ33]ATP filter-plate); type: biochemical
T2 construct: His-tag; made in house; host or cells: Sf9 insect cells
T2 sequence (Q9UHD2 1-729): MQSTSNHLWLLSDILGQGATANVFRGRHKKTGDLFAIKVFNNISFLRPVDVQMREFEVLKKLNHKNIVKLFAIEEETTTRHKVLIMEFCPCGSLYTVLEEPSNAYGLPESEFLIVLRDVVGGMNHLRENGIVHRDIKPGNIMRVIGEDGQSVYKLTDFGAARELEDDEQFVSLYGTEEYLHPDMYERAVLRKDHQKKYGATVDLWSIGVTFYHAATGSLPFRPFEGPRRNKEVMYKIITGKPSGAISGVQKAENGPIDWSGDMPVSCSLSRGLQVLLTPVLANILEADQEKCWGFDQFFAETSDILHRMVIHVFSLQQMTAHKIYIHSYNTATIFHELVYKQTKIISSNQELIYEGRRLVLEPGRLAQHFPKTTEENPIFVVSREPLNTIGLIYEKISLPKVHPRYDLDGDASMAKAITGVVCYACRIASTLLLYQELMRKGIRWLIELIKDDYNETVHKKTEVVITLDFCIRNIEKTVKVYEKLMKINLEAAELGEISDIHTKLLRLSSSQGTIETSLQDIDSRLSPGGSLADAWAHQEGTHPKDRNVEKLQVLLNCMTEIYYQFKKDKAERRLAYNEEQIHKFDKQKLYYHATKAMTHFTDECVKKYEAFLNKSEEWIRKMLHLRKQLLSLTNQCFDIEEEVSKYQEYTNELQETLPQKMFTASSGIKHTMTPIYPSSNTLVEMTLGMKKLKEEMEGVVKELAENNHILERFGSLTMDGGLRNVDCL
Outline: as §1

[3] = system: IKKε-mediated phosphorylation of IRF3; assay: In-situ phosphorylation of IRF3 (pIRF3 Ser396 ELISA) in HEK293T cells cotransfected with IRF3 and IKKε; type: cell-based; details: Homo sapiens, HEK-293T
Outline: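 For the IRF3 ELISA, HEK293T cells cotransfected with IRF3 and IKKε were replated at 20,000/well and treated 20 h. Phospho-Ser396 IRF3 was measured by ELISA and normalised to DMSO, with viability checked by CellTiter-Glo. For IRF7, cells transfected with IRF7 and TBK1 were treated overnight, and pSer477/Ser479 IRF7 was detected by Western blot.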

[4] = text bins, read-out: IC50 for inhibition of the kinase activity of IKKε
[5] = text bins, read-out: IC50 for inhibition of the kinase activity of TBK1
[6] = HEK293T cells in culture, Table 3, read-out: pIRF3 ELISA IC50
[7] = HEK293T cells, 20 hours, text bins, read-out: IC50 for inhibition of the in-situ IKKε-mediated phosphorylation of IRF3

Structure (SMILES)	IC50 ([1]; Table 3, read-out: IKKε IC50) [nM]	IC50 [1, 4] [nM]	IC50 ([2]; Table 3, read-out: TBK1 IC50) [nM]	IC50 [2, 5] [nM]	IC50 [3, 6] [nM]	IC50 [3, 7] [nM]
N#Cc1cc(-c2ccnc(Nc3cccc(NC(=O)N4CCC(O)C4)c3)n2)ccc1OC1CCOCC1 (stereo not drawn) [compound 536, N-[3-({4-[3-Cyano-4-(tetrahydro-2H-pyran-4-yloxy)phenyl]pyrimidin-2-yl}amino)phenyl]-3-hydroxypyrrolidine-1-carboxamide]	0.3	< 5	1.3	< 10	61.9	< 100
N#Cc1cc(-c2ccnc(Nc3cccc(CN4CCN(CCO)CC4)c3)n2)ccc1OC1CCOCC1 [compound 625, 5-{2-[(3-{[4-(2-Hydroxyethyl)piperazin-1-yl]methyl}phenyl)amino]pyrimidin-4-yl}-2-(tetrahydro-2H-pyran-4-yloxy)benzonitrile]	2	< 5	0.4	< 10	16.9	< 100
COc1ccc(Nc2nccc(-c3ccc(N(C)C)c(C#N)c3)n2)cc1OC [Example 206, 5-{2-[(3,4-Dimethoxyphenyl)amino]pyrimidin-4-yl}-2-(dimethylamino) benzonitrile]		< 5		< 10		250 to 500
COc1cc(Nc2nccc(-c3ccc(OC4CCOCC4)c(C#N)c3)n2)ccc1C(=O)N1CCN(CCO)CC1 [compound 476, 5-{2-[(4-{[4-(2-Hydroxyethyl)piperazin-1-yl]carbonyl}-3-methoxyphenyl)amino]pyrimidin-4-yl}-2-(tetrahydro-2H-pyran-4-yloxy)benzonitrile]		< 5		< 10		< 100
N#Cc1cc(-c2ccnc(Nc3ccc(F)c(OCCN)c3)n2)ccc1OCC1CC1 [compound 612, 5-(2-{[3-(2-Aminoethoxy)-4-fluorophenyl]amino}pyrimidin-4-yl)-2-(cyclopropylmethoxy) benzonitrile]		< 5		< 10		100 to 250
N#Cc1cc(-c2ccnc(Nc3ccc(OCCCN4CCOCC4)cc3)n2)ccc1OC1CCOCC1 [compound 527, 5-[2-({4-[3-(morpholin-4-yl)propoxy]phenyl}amino)pyrimidin-4-yl]-2-(tetrahydro-2H-pyran-4-yloxy)benzonitrile]		< 5		< 10		< 100
CS(=O)(=O)NCc1ccc(Nc2nccc(-c3ccc(OC4CCOCC4)c(C#N)c3)n2)cc1 [compound 493, N-[4-({4-[3-cyano-4-(tetrahydro-2H-pyran-4-yloxy)phenyl]pyrimidin-2-yl}amino)benzyl] methanesulfonamide]		< 5		< 10		< 100
N#Cc1cc(-c2ccnc(Nc3ccc(N4CCOCC4)cc3)n2)ccc1OC1CCN(C=O)CC1 [Example 242, 2-[(1-formylpiperidin-4-yl)oxy]-5-(2-{[4-(morpholin-4-yl)phenyl]amino}pyrimidin-4-yl)benzonitrile]		< 5		< 10		250 to 500
CN1CCN(C(=O)Nc2ccc(Nc3nccc(-c4ccc(OC5CCOCC5)c(C#N)c4)n3)cc2)CC1 [Example 20, N-[4-({4-[3-cyano-4-(tetrahydro-2H-pyran-4-yloxy)phenyl]pyrimidin-2-yl}amino)phenyl]-4-methylpiperazine-1-carboxamide]		< 5		< 10		250 to 500
COc1cc(Nc2nccc(-c3ccc(OC4CCOCC4)c(C#N)c3)n2)ccc1OCCN [Example 30, 5-(2-{[4-(2-aminoethoxy)-3-methoxyphenyl]amino}pyrimidin-4-yl)-2-(tetrahydro-2H-pyran-4-yloxy)benzonitrile]		< 5		< 10		250 to 500
CNS(=O)(=O)Cc1ccc(Nc2nccc(-c3ccc(NC(=O)C(C)C)c(C#N)c3)n2)cc1 [compound 414, N-{2-cyano-4-[2-({4-[(methylsulfamoyl)methyl]phenyl}amino)pyrimidin-4-yl]phenyl}-2-methylpropanamide]		5 to 50		10 to 100		100 to 250
N#Cc1cc(-c2ccnc(Nc3cccc(OCCN4CCOCC4)c3)n2)ccc1OC1CCOCC1 [compound 518, 5-[2-({3-[2-(Morpholin-4-yl)ethoxy]phenyl}amino)pyrimidin-4-yl]-2-(tetrahydro-2H-pyran-4-yloxy)benzonitrile]		< 5		< 10		< 100
COc1cc(Nc2nccc(-c3ccc(OC4CCOCC4)c(C#N)c3)n2)ccc1OCCOCCNS(=O)(=O)N1CCN(C)CC1 [Example 27, N-(2-{2-[4-({4-[3-cyano-4-(tetrahydro-2H-pyran-4-yloxy)phenyl]pyrimidin-2-yl}amino)-2-methoxyphenoxy]ethoxy}ethyl)-4-methylpiperazine-1-sulfonamide]		< 5		< 10		250 to 500
COc1ccc(Nc2nccc(-c3ccc(OC4CCOCC4)c(C#N)c3)n2)cc1OCCCC1CCNCC1 [compound 522, 5-[2-({4-methoxy-3-[3-(piperidin-4-yl)propoxy]phenyl}amino)pyrimidin-4-yl]-2-(tetrahydro-2H-pyran-4-yloxy)benzonitrile]		< 5		< 10		< 100
CC(C)N1CCN(CCOc2cc(Nc3nccc(-c4ccc(OC5CCOCC5)c(C#N)c4)n3)ccc2F)CC1 [compound 650, 5-{2-[(4-Fluoro-3-{2-[4-(propan-2-yl)piperazin-1-yl]ethoxy}phenyl)amino]pyrimidin-4-yl}-2-(tetrahydro-2H-pyran-4-yloxy)benzonitrile]		< 5		< 10		< 100
CC(C)C(=O)Nc1ccc(-c2ccnc(Nc3ccc(CC(=O)N4CCN(C(C)C)CC4)cc3)n2)cc1C#N [compound 418, N-(2-cyano-4-{2-[(4-{2-oxo-2-[4-(propan-2-yl)piperazin-1-yl]ethyl}phenyl)amino]pyrimidin-4-yl}phenyl)-2-methylpropanamide]		5 to 50		< 10		< 100
N#Cc1cc(-c2ccnc(Nc3cccc(NCCN4CCOCC4)c3)n2)ccc1OC1CCOCC1 [compound 657]	1.3	< 5	1.3	< 10	97.6	< 100
N#Cc1cc(-c2ccnc(Nc3ccc(CS(=O)(=O)N4CCN(CCO)CC4)cc3)n2)ccc1OC1CCOCC1 [compound 406, 5-(2-{[4-({[4-(2-Hydroxyethyl)piperazin-1-yl]sulfonyl}methyl)phenyl]amino}pyrimidin-4-yl)-2-(tetrahydro-2H-pyran-4-yloxy)benzonitrile]		< 5		< 10		< 100
C[C@H](O)C(=O)NCc1ccc(Nc2nccc(-c3ccc(OC4CCOCC4)c(C#N)c3)n2)cc1 [compound 494, (2S)-N-[4-({4-[3-cyano-4-(tetrahydro-2H-pyran-4-yloxy)phenyl]pyrimidin-2-yl}amino)benzyl]-2-hydroxypropanamide]		< 5		< 10		100 to 250
